In this data set the target is T1, hERG K+ channel (Kv11.1) (Homo sapiens, UniProt Q12809).
T1 construct: gene KCNH2
Description: two-microelectrode voltage clamp, hERG tail current inhibition in Xenopus oocytes; alanine mutants Y652A and F656A reduce block. The class given is cell-based.

SMILES strings stand for the structures.

T1 sequence (Q12809 whole entry): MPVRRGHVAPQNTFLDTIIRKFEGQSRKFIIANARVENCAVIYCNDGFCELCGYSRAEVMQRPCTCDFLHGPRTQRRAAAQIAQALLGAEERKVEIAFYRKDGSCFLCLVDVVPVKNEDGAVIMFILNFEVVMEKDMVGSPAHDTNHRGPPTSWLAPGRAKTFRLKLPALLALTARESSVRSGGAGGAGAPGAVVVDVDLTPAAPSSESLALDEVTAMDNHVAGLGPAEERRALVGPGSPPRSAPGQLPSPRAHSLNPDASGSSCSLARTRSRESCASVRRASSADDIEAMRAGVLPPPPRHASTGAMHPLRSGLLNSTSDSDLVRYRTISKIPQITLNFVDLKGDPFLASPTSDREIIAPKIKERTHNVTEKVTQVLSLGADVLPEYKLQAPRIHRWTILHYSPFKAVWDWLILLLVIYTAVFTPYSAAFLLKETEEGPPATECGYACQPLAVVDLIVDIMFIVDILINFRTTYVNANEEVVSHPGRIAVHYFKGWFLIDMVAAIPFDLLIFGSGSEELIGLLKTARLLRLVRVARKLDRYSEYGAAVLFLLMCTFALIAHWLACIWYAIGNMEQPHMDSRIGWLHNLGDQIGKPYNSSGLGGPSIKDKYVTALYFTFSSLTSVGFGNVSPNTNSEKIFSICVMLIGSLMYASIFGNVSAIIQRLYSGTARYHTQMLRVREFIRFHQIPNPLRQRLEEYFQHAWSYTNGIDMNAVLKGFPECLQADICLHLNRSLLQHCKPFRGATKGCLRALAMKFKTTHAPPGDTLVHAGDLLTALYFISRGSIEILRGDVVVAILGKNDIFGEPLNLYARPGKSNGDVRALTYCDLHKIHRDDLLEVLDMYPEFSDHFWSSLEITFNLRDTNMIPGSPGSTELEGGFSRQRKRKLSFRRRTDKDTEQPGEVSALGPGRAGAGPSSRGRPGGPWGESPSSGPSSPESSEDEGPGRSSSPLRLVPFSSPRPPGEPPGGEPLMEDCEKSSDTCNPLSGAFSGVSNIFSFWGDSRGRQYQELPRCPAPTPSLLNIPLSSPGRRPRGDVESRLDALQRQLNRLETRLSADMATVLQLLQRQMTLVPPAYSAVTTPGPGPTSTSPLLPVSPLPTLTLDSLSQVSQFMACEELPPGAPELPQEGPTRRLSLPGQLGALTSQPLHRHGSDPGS

With `O=C(CCc1ccccc1)c1ccccc1OCC(O)CN1CCN(C(c2ccccc2)(c2ccccc2)c2ccccc2)CC1` (stereo not shown) [FB213, 1-[2-(2-hydroxy-3-(4-tritylpiperazin-1-yl)-propoxy)phenyl]-3-phenylpropan-1-one], the IC50 (in general, the concentration at which inhibition is half-maximal) was determined as 47.1 ± 5.1 µM.

These data come from article PMC5292991, “Drug trapping in hERG K^+ channels: (not) a matter of drug size?” (Medchemcomm, 2015).
